According to a melting point compilation (Tetko et al.; mined from patent text by program, amines drawn as free bases though some values may be those of a salt):

With `O=C1N(Cc2ccc3nonc3c2)c2ccccc2C12COc1cc3c(cc12)OCO3` (configuration not stated) the melting point was 163 to 165 °C.
`CCCCCCC(=N)NC(=S)Nc1cccc(C(F)(F)F)c1` showed a melting point of 105 to 107 °C.
Work on `CCOC(=O)C=Cc1ccc2cc(C=CC(=O)OCC)ccc2c1` yielded a melting point of 150 to 151 °C.
With `CC(C)(C)OC(=O)N1CCN(c2ccnc3sc(C(N)=O)c(N)c23)CC1` the melting point was 198 to 203 °C.
With `O=C(NCc1ccccc1F)[C@@H]1CCCN(c2cccc3c2C(=O)N(Cc2ccncc2)C3=O)C1` the melting point was 196 to 197 °C.
With `CCOC(=O)NC(=NCCCc1c[nH]cn1)NCCSCc1cccnc1` the melting point was 90 to 91 °C.
Compound `CCCC(=O)c1ccc(NC(C)=O)cc1` has a melting point of 141 to 143 °C.
Compound `Cc1nc(-c2cn(-c3cc(-c4ccc(C(F)(F)F)cc4)cc(C(F)(F)F)n3)cn2)sc1S(=O)(=O)NC(C)(C)C` has a melting point of 260 °C.
`COc1ccc2sc(=NN3C(=O)CSC3=S)sc2c1` gave a melting point of 254 to 255 °C.
Compound `CCCCc1sc(-c2ccccc2)nc1O` has a melting point of 69 to 71 °C.
For `CC(=O)Oc1ccc2c3c(cc(Cl)c2c1)-c1cc(F)c(OC(C)=O)cc1CO3`, the melting point was 194 to 198 °C.
With `Nc1nc(-c2cccc(F)c2)nc2nc(-c3ccco3)nn12` the melting point was over 300 °C.
Compound `CNC(=O)C1CCCN1S(=O)(=O)c1ccc(N2CCC3(CC2)OCCO3)cc1` (configuration not stated) has a melting point of 137 to 139 °C.
Work on `CC(=O)c1cc2nc(S(=O)Cc3nccc4c3OCO4)[nH]c2cc1C` (configuration not stated) yielded a melting point of 178 to 180 °C.
In the case of `O=S(=O)(N=CN1CCOCC1)c1nc(-c2ccccc2)ns1`, the melting point was 185 to 187 °C.
`CCCCNC(=O)[C@H](C)C[C@H](O)[C@H](CC1CCCCC1)NC(=O)[C@H](Cc1cscn1)NC(=O)OC(C)(C)C` showed a melting point of 172 to 174 °C.
In the case of `CCCCCCCCCCCCCCCCCC(=O)NCC(C)(C)COC(=O)CCc1cc(C(C)(C)C)c(O)c(C(C)(C)C)c1`, the melting point was 44 °C.
For `CC(=O)OC1CSC(Oc2cccc3oc(C)nc23)C(OC(C)=O)C1OC(C)=O` (configuration not stated), the melting point was 149 to 151 °C.
Compound `CC(=O)N1c2ccccc2C[C@H]1C#N` has a melting point of 134 to 135 °C.
`CC(C)(C)c1ccc(CN(Cc2cccc(OCC(=O)O)c2)S(=O)(=O)c2cccnc2)cc1` showed a melting point of 159 to 160 °C.
For `COC(=O)c1cc(Cl)c(Oc2ccc(OC)cc2)c(Cl)c1`, the melting point was 82 to 85 °C.
Work on `CC1Cc2c(nc3ccc(F)cc3c2C(=O)O)-c2ccc(-c3ccccc3F)cc21` (configuration not stated) yielded a melting point of 274 to 277 °C.
With `CCCCCc1nc2ccc(C(=O)O)cc2c(=O)[nH]1` the melting point was 310 to 312 °C.
In the case of `COC(=O)Cc1nsc(NC(=O)OCc2ccccc2)n1`, the melting point was 121 to 123 °C.
With `Cc1nnc(SCC(=O)C23CC4CC(CC(C4)C2)C3)s1` the melting point was 102 to 105 °C.
`CCOC(=O)C(C(=O)OCC)C(NC(C)=O)[PH](=O)O` (configuration not stated) gave a melting point of 113 to 114 °C.
Compound `O=C(O)CCC(=O)N1CCCc2cc(S(=O)(=O)N3CCN(c4cccc(Cl)c4)CC3)ccc21` has a melting point of 135 to 136 °C.
With `CN(C)c1ccc(Pc2ccc(N(C)C)cc2)cc1` the melting point was 80 to 90 °C.
Compound `N#Cc1ccc(-c2cnc3cnc(-c4ccc(O)cc4)nc3c2)cc1` has a melting point of 313 to 314 °C.
With `O=c1[nH]c2ccc(Cl)cc2c2nc(-c3ccc(O)cc3)nn12` the melting point was over 350 °C.
For `CC1CCC(N2c3ccccc3Oc3ccccc32)=N1` (configuration not stated), the melting point was 135 to 137 °C.
Compound `O=c1oc2cc(O)c(O)cc2c(O)c1C1c2ccccc2Oc2c1c(=O)oc1cc(O)cc(O)c21` (configuration not stated) has a melting point of over 300 °C.
`ON=c1cc(-c2cc3cccn3cn2)oc2ccc(OCCc3cccc(C(F)(F)F)c3)cc12` showed a melting point of 217 to 218 °C.
`Cc1csc(C(=O)C(F)(F)F)n1` showed a melting point of 77 to 81 °C.
In the case of `Cc1ccc(N(c2ccc(-c3ccccc3)cc2)c2ccc(C)c(C)c2)cc1C`, the melting point was 114 °C.
In the case of `CSc1nccc(Oc2ccc(NC(=O)c3cc(F)cc(N4CCCC4)c3)c3ccccc23)n1`, the melting point was 180 to 181 °C.
With `CCOC(=O)CCc1ccc2c(c1)CC(CNS(=O)(=O)c1ccc(Cl)cc1)C2` (configuration not stated) the melting point was 90 to 93 °C.
Compound `O=C(CN1CCC(Cc2ccc(F)cc2)CC1)Nc1ccc2[nH]ncc2c1` has a melting point of 149 to 152 °C.
Compound `N#CC1=C(Nc2cc(C(F)(F)F)ccc2N)CSC1` has a melting point of 189 °C.
`CC(=O)CC(=O)C=Cc1ccc2cc[nH]c2c1` showed a melting point of 138 to 142 °C.
With `Cc1ccc(-c2occc2C#N)cc1` the melting point was 66 °C.
Work on `O=C1c2ccc(OCCOCCOCCO)cc2C(=O)c2ccc(OCCOCCOCCO)cc21` yielded a melting point of 110 °C.
With `Cc1ncc(CCCCC(=O)O)s1` the melting point was 75 °C.
Work on `COC(=O)C1CN(C)CCC1c1ccc(F)cc1` (configuration not stated) yielded a melting point of 88 to 89 °C.
Compound `CCN(CC)C(=O)Cc1cccc(Oc2ccccc2F)c1N` has a melting point of 159 to 160 °C.
Work on `CCCCOCC(=O)NNC(=O)N1Cc2ccccc2Oc2ccc(Cl)cc21` yielded a melting point of 93 to 97 °C.
`Cc1cc(C(CC2CCCC2)c2ccc(S(C)(=O)=O)cc2)[nH]c1C(=O)O` (configuration not stated) showed a melting point of 127 °C.
For `COC(=O)c1c(C)nc2c(C)cc(C)cc2c1-c1ccccc1Cl`, the melting point was 119 to 120 °C.
Compound `CN(C)c1cccc(Cc2cc3cccc(-c4cccc(C(=O)NCC(N)=O)c4)c3s2)c1` has a melting point of 149 to 151 °C.
`CC(=O)O[C@@H]1CN2C(=O)N(c3cc(Cl)cc(Cl)c3)C(=O)[C@]2(Cc2ccc(Br)cc2)C1` showed a melting point of 150 °C.
Compound `COC(=O)c1ccc(S(=O)(=O)C[N+](=O)[O-])cc1` has a melting point of 106 to 108 °C.
For `c1ccc(Cc2cnc(-c3ccccc3)c(-c3ccccc3)n2)cc1`, the melting point was 118 to 119 °C.
Compound `COC(=O)c1ccc(OC)cc1S(=O)(=O)Cl` has a melting point of 69 to 72 °C.
`N#Cc1cc(F)cc(C#N)c1` gave a melting point of 98 to 100 °C.
Work on `C=CCOC(=O)c1cccc(NC(=O)NCC(=O)Nc2ccccc2C(=O)c2cccs2)c1` yielded a melting point of 140 to 141 °C.
`O=C(O)c1ccc2nc3ccccn3c(=O)c2c1` gave a melting point of over 310 °C.
In the case of `Clc1ccc2c(c1)C(c1ccsc1)=NCC1COCCN21` (configuration not stated), the melting point was 207 to 212 °C.
`O=C(Nc1ccc(-n2nc(C3CC3)cc2C2CC2)c(F)c1)c1cccc(F)c1F` showed a melting point of 132 to 135 °C.
With `Cc1cc(N)nc(CCc2nc3cc(-c4ccc(F)cc4)cnc3[nH]2)c1` the melting point was 228 °C.
`Cc1ccc2cccc(N(Cc3c(Cl)ccc([N+](=O)[O-])c3Cl)C(=O)OC(C)(C)C)c2n1` showed a melting point of 130 to 131 °C.
With `O=C(NOC1CCCCO1)c1ccc(C(=O)Nc2cccc(Nc3nc(-c4cccnc4)cs3)c2)cc1` (configuration not stated) the melting point was 224 °C.
`O=C(O)CS(=O)(=O)Nc1ccc(F)cc1C(F)(F)F` gave a melting point of 120 to 121 °C.
`N#CC=C1CCN(c2ccc(N3C[C@H](CNC(=O)CC#N)OC3=O)cc2F)CC1` gave a melting point of 150 to 152 °C.
`CSc1ccc(NC(=O)N(C)O)cc1` gave a melting point of 146 to 148 °C.
`CCCC1=C(C#N)C(c2cccc3ccccc23)c2c[nH]nc2N1` (configuration not stated) gave a melting point of 263 °C.
With `CCC(=NO)C1=CCCN(Cc2ccccc2)C1` the melting point was 111 to 112 °C.
Work on `O=C(Nc1cccc2[nH]ccc12)c1cc(O)cc(Cl)c1` yielded a melting point of 248 °C.
For `O=C(NCCN1CCOCC1)Nc1nc2ccc(OCc3c(Cl)cccc3Cl)cc2s1`, the melting point was 268 to 271 °C.
Compound `CCc1ccc2c(c1)C(=O)CCCC(=O)N2` has a melting point of 138 to 140 °C.
Compound `O=[N+]([O-])c1cccc(Oc2nccnc2Cl)c1` has a melting point of 119 to 121 °C.
Compound `S=C=Nc1ccc2oc(-c3ccc(CN4CCOCC4)s3)nc2c1` has a melting point of 135 to 138 °C.
`CS(=O)(=O)c1ccc(-c2cnn(-c3cccc(Cl)c3)c(=O)c2Sc2ccccn2)cc1` showed a melting point of 110 to 114 °C.
